# Reference: patent US20090209565A1, “THERAPEUTIC AGENT FOR INFLAMMATORY BOWEL DISEASE” (priority 2006, published 2009)
# Legend:
# [1] = system: DSS-induced IBD model animals; assay: Actions of improving the clinical conditions in DSS-induced IBD model; type: in vivo, mice; settings: for Change in length of the large intestine (Ratio to the no treatment group, %): C57BL/6N mice, 3% DSS Day 0-4, drug Day 4-10, determined Day 11, control 73.4
# Procedure: This test was performed according to the method described in PEDIATRIC RESEARCH, Vol. 53, No. 1, 143 to 147, 2003. In particular, mice (6-week-old, C57BL/6N Jcl, CLEA Japan, Inc.) were divided into groups of eight mice each such that average body weight was the same in each group on Day 0. […] Determination was made on the next day of the last administration of each drug (Day 11). As the evaluation index, the length of the large intestine and the rate of body weight change from the first day of the test (Day 0) to the last day of the test (Day 11) were measured.
# [2] = system: SD rats; settings: 2000 mg/kg single oral dose in 0.5% HPMC, five male and five female SD rats
# Procedure: 2000 mg/kg of Compound (1) was suspended in 0.5% HPMC solution, and orally administered at a single dose of 10 mL/kg to five male and five female SD rats (6-week-old).
# [3] = system: intestinal epithelial cells; assay: Inhibition of apoptosis of large intestinal epithelial cells in TNBS-induced colitis; type: in vivo, mouse; settings: TNBS-induced colitis large intestine, Giemsa staining, 1000 cells per segment; TNBS alone 40.0±3.0%
# Procedure: Large intestine affected by TNBS-induced colitis was subjected to Giemsa staining to stain the nucleus, and apoptosis of the intestinal epithelial cells was investigated (FIG. 3). Cells showing cell shrinkage or nucleus fragmentation were taken as apoptoic cells. 1000 cells in each segment were observed under the microscope, and the ratio of apoptotic cells (the apoptosis induction rate) was calculated (FIG. 4).
# [4] = Compound 100, prednisolone 5, 5-ASA 100 mg/kg/day
SMILES,"Change in length of the large intestine (Ratio to the no treatment group, %) [1, 4] [%]",death [2],ratio of apoptotic cells (apoptosis induction rate) [3] [%],"weight loss (rate of body weight change from first day to determination day) ([1]; Day 0 to Day 11, printed as loss, prednisolone 5, 5-ASA 100 mg/kg/day, control loss 1.7±1.8) [%]","Rate of body weight change (%, Mean ± SE) ([1]; Day 0 to Day 11, Compound 100, prednisolone 5, 5-ASA 100 mg/kg/day, control −1.7 ± 1.8, no treatment 3.7 ± 1.5) [%]"
"Cl.N=C1CCCN1Cc1[nH]c(=O)[nH]c(=O)c1Cl [Compound (1), 5-chloro-6-(2-iminopyrrolidin-1-yl)methyl-2,4(1H,3H)-pyrimidinedione hydrochloride]",88.6,no case of death,,,
"N=C1CCCN1Cc1[nH]c(=O)[nH]c(=O)c1Cl [Compound (I), 5-chloro-6-(2-iminopyrrolidin-1-yl)methyl-2,4(1H,3H)-pyrimidinedione]",88.6,,26.0±5.0,,
"Nc1ccc(O)c(C(=O)O)c1 [Compound 5-ASA, 5-aminosalycilic acid]",80.3,,,5.0±0.3,−5.0 ± 0.3
"C[C@]12C=CC(=O)C=C1CC[C@@H]1[C@@H]2[C@@H](O)C[C@@]2(C)[C@H]1CC[C@]2(O)C(=O)CO [Prednisolone, prednisolone]",93.2,,,,
